Results published in patent publication EP0386044B1, “HYPOGLYCAEMIC PEPTIDES” (MONASH UNIVERSITY, priority 1987, dated 1997).
Where no end group is shown, it is not given here. [ ]: non-standard residue; d: D form.

Legend:
rats = assay: Decrease in blood glucose level in rats following intravenous injection of peptides; assay type: in vivo; conditions: for hypoglycaemic effect (change in blood glucose level), in words: injection of peptide, Table 2 and Figure 9; for Decrease in blood from basal / Difference from control mean: intravenous injection, peptide 0.5 µmol/100g; for Decrease in blood from basal: change of blood glucose from basal level (4.0 - 4.4 mmol glucose/l) at time 0, control 1.05; for Difference from control mean: difference of blood glucose decrease from control mean (1.05)
Description: Values are changes (means ± SEM) of blood glucose from the basal level (4.0 - 4.4 mmol glucose/l) at time 0. Differences between the control and test groups were statistically evaluated according to Student's t-test. N.S. indicates 2P > 0.05.
Similar results are illustrated graphically in Figure 9.

mice = assay: In vivo testing for insulin-potentiating activity on untrained and trained mice; conditions: untrained female mice and untrained or trained male mice, 2.3 or 2.4 mg/kg peptide in 0.2 ml saline, insulin injected at t0; Figures 12 and 13
Procedure: The dotted lines represent control animals (injected with 0.2 ml of saline) in each case. The unbroken lines represent test animals (injected with 2.4 mg/Kg of peptide in 0.2 ml of saline). Insulin was injected at to. • Figure 13 represents in vivo testing of peptides for insulin-potentiating activity on "untrained" and "trained" male mice. The dotted line represents the mean fall in blood glucose for control animals (injected with 0.2 ml of saline). The unbroken line represents the mean fall in blood glucose for test animals, injected with 2.3 mg/kg of peptide in 0.2 ml of saline, except for (a), in which the dose was 2.4 mg/kg. • (a) Pep 6-13 (Gln^11Asp^12), "untrained" • (b) Pep 6-13 (Gln^11Asp^12), "trained" • (c) Pep 6-13 (Asn^11Asp^12), "trained" • (d) Pep 6-13 (Asp^12), "trained" Insulin was injected at to.
The dose of Pep (6-13) was 200 µg/Kg body weight. Similarly, various forms of the peptide according to the invention in its β imide form potentiate the hypoglycaemic effect of insulin on "untrained" male and female mice. The effect on trained male mice trained to feed on schedule as described above was less striking, but still significant in some cases.

[1] = tested on: cultured muscle cells (L6 rat skeletal muscle cell line); assay: Cultured cell assay for stimulation of glucose uptake; assay type: cell-based; conditions: peptide 10µg/ml
Description: In these assays collagenase-dispersed rat adipocytes, cultured muscle cells (L6 rat skeletal muscle cell line) and hemidiaphragm preparations were employed.
The effect of the β imide form peptides on glucose metabolism is further shown by their ability to stimulate glucose uptake and glycogen synthesis by cultured muscle cells and isolated rat hemidiaphragms.

“Pep (6-13) Tyr^10 α form: variant Tyr^10 of Pep (6-13), α form (LSRLYDNA; UniProt P01241 32-39, looked up, variant F10Y)” was tested, and the “hypoglycaemic effect (change in blood glucose level), in words” value (rats) was “inactive”.

With “L-α-Asp at position 11 in hGH[6-13]: inactive control peptide, hGH[6-13] with L-α-Asp at position 11 and Asp at 12 (LSRLFDDA; UniProt P01241 32-39, looked up, variant N12D)” the insulin-potentiating activity (mice) was “inactive”.

With LSRL[dF]DNA [Pep P057] the “Rate of Increase from Basal” value [1] was 2.0 µmol glucose/hour.

With “Pep (6-13) Gly^10Pro^11 α form: variant Gly^10Pro^11 of Pep (6-13), α form (LSRLGPNA; UniProt P01241 32-39, looked up, variant F10G D11P)” the “hypoglycaemic effect (change in blood glucose level), in words” value (rats) was “inactive”.

For “Pep (6-13) Pro^11 α form: variant Pro^11 of Pep (6-13), α form (LSRLFPNA; UniProt P01241 32-39, looked up, variant D11P)”, the “hypoglycaemic effect (change in blood glucose level), in words” value (rats) was “inactive”.

In the case of “Pep (6-15): synthetic peptide corresponding to residues 6-15 of human growth hormone, α form (LSRLFDNAML; UniProt P01241 32-41, looked up, fragment)”, the “hypoglycaemic effect (change in blood glucose level), in words” value (rats) is reported as “active only in the β imide form”, the “Decrease in blood from basal” value (rats) is reported as 1.26 and the “Difference from control mean” value (rats) is reported as 0.21.

With “Pep (6-12): synthetic peptide corresponding to residues 6-12 of human growth hormone, α form (LSRLFDN; UniProt P01241 32-38, looked up, fragment)” the “hypoglycaemic effect (change in blood glucose level), in words” value (rats) was “active only in the β imide form”, the “Decrease in blood from basal” value (rats) was 1.00 and the “Difference from control mean” value (rats) was -0.05.

In the case of “Pep (9-13): synthetic peptide corresponding to residues 9-13 of human growth hormone, α form (LFDNA; UniProt P01241 35-39, looked up, fragment)”, the “hypoglycaemic effect (change in blood glucose level), in words” value (rats) is reported as “neither the α form nor the β imide form was active”, the “Decrease in blood from basal” value (rats) is reported as 1.12 and the “Difference from control mean” value (rats) is reported as 0.07.

For “Pep (6-13) Ala^11 α form: variant Ala^11 of Pep (6-13), α form (LSRLFANA; UniProt P01241 32-39, looked up, variant D11A)”, the “hypoglycaemic effect (change in blood glucose level), in words” value (rats) was “inactive”.

“Pep (6-13) Gly^10 α form: variant Gly^10 of Pep (6-13), α form (LSRLGDNA; UniProt P01241 32-39, looked up, variant F10G)” was tested, and the “hypoglycaemic effect (change in blood glucose level), in words” value (rats) was “inactive”.
